The NIST ThermoML archive (doi:10.1016/j.fluid.2006.06.024)
± gives the expanded uncertainty stated by the source.

Assay: activity coefficient (dimensionless); of the first substance listed, at infinite dilution; xn = mol fraction of the nth substance listed
Conditions: Gas, Chromatography, x1 = 0

Row | Structure (SMILES) | activity coefficient (374 K) | activity coefficient (393.3 K) | activity coefficient (412.5 K) | activity coefficient (394.8 K) | activity coefficient (375.2 K) | activity coefficient (412.6 K)
1 | C=CC=C [1,3-butadiene] + CO | 5 ± 0.2 | 4.7 ± 0.2 | 4.2 ± 0.2 | – | – | –
2 | C=CCC [1-butene] + CO | 7 ± 0.3 | – | 5.6 ± 0.3 | 6.1 ± 0.3 | – | –
3 | C=C(C)C [2-methylpropene] + CO | 6.5 ± 0.3 | 6 ± 0.3 | 5.4 ± 0.3 | – | – | –
4 | C/C=C/C [(E)-2-butene] + CO | – | – | – | 6.6 ± 0.3 | 7.3 ± 0.3 | 6 ± 0.3
